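The compound was tested at five concentrations on cells cultured in 96-well plates, with a 48-hour exposure period. Here, GI50 denotes the concentration required for 50% inhibition of growth. At the TGI there is no net growth.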 Some results are limits rather than exact numbers.

One test relates to HOP-62 NSCLC. Put plainly: NCI anticancer screen, dose series, 48 h.
`N#CCCN(CCC#N)c1ccc(/C=C2\N=C(c3cc([N+](=O)[O-])ccc3Cl)OC2=O)cc1` displayed a TGI of 95.7 µM.

In turn, `COc1ccccc1C12OC(=O)C1(C)Oc1ccccc1C2=O` (configuration not stated) gave a TGI of over 100 µM.

On to `NC(Cc1c[nH]c2c(O)cccc12)C(=O)O` (configuration not stated), for which the GI50 was over 100 µM and the TGI is over 100 µM.

`O=C1C2C(C(=O)N1OS(=O)(=O)c1ccccc1)N(Cc1ccccc1)C(=O)N2Cc1ccccc1` (configuration not stated): the TGI was over 100 µM.

`O=C(COc1ccc(Br)cc1Br)N1N=C(c2ccc([N+](=O)[O-])o2)CC1(O)c1ccccc1` (configuration not stated) returned a TGI of 27.5 µM.

On to `COc1cc(-c2nn(-c3ccc(NC(=O)c4ccc(Cl)c(C(F)(F)F)c4)cc3)cc2-c2ccncc2)ccc1Cl`, for which the GI50 was 2.07 µM and the TGI came to 7.07 µM.

In the case of `CCCCOC(=O)C1OC(O[C@H]2CCC3(C)C(CCC4(C)C3CC=C3C5CC(C)(C)CCC5(C(=O)O)CC[C@]34C)C2(C)C)C(OC2OC(CO)C(O)C(O)C2O)C(OC2OC(CO)C(O)C(O)C2O)C1O` (some centres not stated), the GI50 was 19.4 µM and the TGI was 35.6 µM.

In the case of `Clc1ccc2c(NCCCCNc3nc(N4CCCCC4)nc4ccccc34)ccnc2c1`, the GI50 is 1.9 µM and the TGI worked out at 5.88 µM.

`CN(C)C(=N)c1ccccc1`: the TGI was over 100 µM.

In turn, `NNC(=O)Nc1cccnc1` returned a TGI of over 100 µM.

`Cc1cc(C)nc(NS(=O)(=O)c2ccc(NC(=O)c3ccc(Cl)c4c(Nc5ccc(S(=O)(=O)Nc6nc(C)cc(C)n6)cc5)c5ccccc5nc34)cc2)n1` returned a TGI of over 100 µM.

In the case of `CC1=C(C(=O)NCc2ccccc2)C(/C=C/c2ccccc2)C(C(=O)NCc2ccccc2)=C(C)N1`, the TGI was over 100 µM.

The next test concerns KM12 colon. Put plainly: NCI anticancer screen, dose series, 48 h.
The compound `Cc1ccc(N=Nc2ccc(N(CCC#N)CCC#N)cc2C)c(Br)c1` yielded a TGI of 55.8 µM.

As to `CC(C)C/C(CC(=O)CCC(=O)Nc1ccccc1[N+](=O)[O-])=N\NC(=O)c1cc2ccccc2cc1O`, the TGI was over 100 µM.

`COC(CN1C(=O)c2cccc3cccc(c23)C1=O)OC`: the TGI was over 100 µM.

`CCCCCCCCCCCCCCCCCC(CCCCCCCCCCCCCCCCC)OP(=O)(O)O` displayed a TGI of over 100 µM.

With `COC1(OC)CCC2C1C1CCC(OC)(OC)C21` (configuration not stated), the TGI is over 50 µM.

In the case of `CN1C(=O)C(C)(C)C2(SC(C)(C)C2(C)C)N(C)C1=S` (configuration not stated), the TGI is over 100 µM.

`COc1cc2c(cc1OC)-c1c3cc(O)ccc3nn[n+]1CC2` returned a TGI of over 100 µM.

In the case of `Cc1nc2ccccc2c(N)c1-c1cc(C)c2c(C)nc3ccccc3c2n1`, the GI50 is 0.785 µM and the TGI was 2.15 µM.

`N#CCCN(CCC#N)c1ccc(/C=C2\N=C(c3cc([N+](=O)[O-])ccc3Cl)OC2=O)cc1` returned a TGI of 28.2 µM.

On to `COc1ccccc1C12OC(=O)C1(C)Oc1ccccc1C2=O` (configuration not stated), for which the TGI was over 100 µM.

Regarding `NC(Cc1c[nH]c2c(O)cccc12)C(=O)O` (configuration not stated), the GI50 is over 100 µM and the TGI was over 100 µM.

As to `O=C1C2C(C(=O)N1OS(=O)(=O)c1ccccc1)N(Cc1ccccc1)C(=O)N2Cc1ccccc1` (configuration not stated), the TGI is over 100 µM.

`O=C(COc1ccc(Br)cc1Br)N1N=C(c2ccc([N+](=O)[O-])o2)CC1(O)c1ccccc1` (configuration not stated) registered a TGI of 45.3 µM.

For the compound `COc1cc(-c2nn(-c3ccc(NC(=O)c4ccc(Cl)c(C(F)(F)F)c4)cc3)cc2-c2ccncc2)ccc1Cl`, the GI50 was 1.5 µM and the TGI was determined as 4.84 µM.

Regarding `CCCCOC(=O)C1OC(O[C@H]2CCC3(C)C(CCC4(C)C3CC=C3C5CC(C)(C)CCC5(C(=O)O)CC[C@]34C)C2(C)C)C(OC2OC(CO)C(O)C(O)C2O)C(OC2OC(CO)C(O)C(O)C2O)C1O` (some centres not stated), the GI50 is 30.8 µM and the TGI came to 93.5 µM.

On to `N#CC1C(C#N)C2(c3ccccc3)C(c3ccccc3)=NN(c3ccccc3)CC12` (configuration not stated), for which the TGI was over 100 µM.

In the case of `Clc1ccc2c(NCCCCNc3nc(N4CCCCC4)nc4ccccc34)ccnc2c1`, the GI50 is 3.4 µM and the TGI is 13.1 µM.

Take `O=C1/C(=C/c2ccccc2)CN(C(=O)C(Cl)(Cl)Cl)C/C1=C\c1ccccc1`: the TGI is 3.4 µM.

Take `CN(C)C(=N)c1ccccc1`: the TGI was over 100 µM.

As to `NNC(=O)Nc1cccnc1`, the TGI was over 100 µM.

As to `Cc1cc(C)nc(NS(=O)(=O)c2ccc(NC(=O)c3ccc(Cl)c4c(Nc5ccc(S(=O)(=O)Nc6nc(C)cc(C)n6)cc5)c5ccccc5nc34)cc2)n1`, the TGI was over 100 µM.

`CC1=C(C(=O)NCc2ccccc2)C(/C=C/c2ccccc2)C(C(=O)NCc2ccccc2)=C(C)N1`: the TGI was over 100 µM.

`CCCCCN(CCCCC)CCCNc1c2c(nc3ccc(Cl)cc13)CCCC2`: the GI50 is 3.13 µM and the TGI amounted to 10.3 µM.

The test system of a further test is NCI-H460 lung. Put plainly: NCI anticancer screen, dose series, 48 h.
In turn, `O=C(O)CCc1coc2ccc(O)cc12` displayed a TGI of over 100 µM.

In the case of `CC(C)C/C(CC(=O)CCC(=O)Nc1ccccc1[N+](=O)[O-])=N\NC(=O)c1cc2ccccc2cc1O`, the TGI is over 100 µM.

Take `COC(CN1C(=O)c2cccc3cccc(c23)C1=O)OC`: the TGI is over 100 µM.

`CCCCCCCCCCCCCCCCCC(CCCCCCCCCCCCCCCCC)OP(=O)(O)O` displayed a TGI of over 100 µM.

Turning to `CN1C(=O)C(C)(C)C2(SC(C)(C)C2(C)C)N(C)C1=S` (configuration not stated), the TGI was over 100 µM.

The compound `COc1cc2c(cc1OC)-c1c3cc(O)ccc3nn[n+]1CC2` registered a TGI of over 100 µM.

For the compound `Cc1nc2ccccc2c(N)c1-c1cc(C)c2c(C)nc3ccccc3c2n1`, the GI50 was 0.329 µM and the TGI is 1.17 µM.

Take `N#CCCN(CCC#N)c1ccc(/C=C2\N=C(c3cc([N+](=O)[O-])ccc3Cl)OC2=O)cc1`: the TGI was over 100 µM.

The compound `COc1ccccc1C12OC(=O)C1(C)Oc1ccccc1C2=O` (configuration not stated) came in with a TGI of over 100 µM.

For the compound `NC(Cc1c[nH]c2c(O)cccc12)C(=O)O` (configuration not stated), the GI50 was over 100 µM and the TGI is over 100 µM.

As for `O=C1C2C(C(=O)N1OS(=O)(=O)c1ccccc1)N(Cc1ccccc1)C(=O)N2Cc1ccccc1` (configuration not stated), the TGI was over 100 µM.

`O=C(COc1ccc(Br)cc1Br)N1N=C(c2ccc([N+](=O)[O-])o2)CC1(O)c1ccccc1` (configuration not stated) registered a TGI of 20.4 µM.

As to `COc1cc(-c2nn(-c3ccc(NC(=O)c4ccc(Cl)c(C(F)(F)F)c4)cc3)cc2-c2ccncc2)ccc1Cl`, the GI50 is 3.43 µM and the TGI was over 100 µM.

For the compound `CCCCOC(=O)C1OC(O[C@H]2CCC3(C)C(CCC4(C)C3CC=C3C5CC(C)(C)CCC5(C(=O)O)CC[C@]34C)C2(C)C)C(OC2OC(CO)C(O)C(O)C2O)C(OC2OC(CO)C(O)C(O)C2O)C1O` (some centres not stated), the GI50 was 33.3 µM and the TGI was over 100 µM.

Compound `N#CC1C(C#N)C2(c3ccccc3)C(c3ccccc3)=NN(c3ccccc3)CC12` (configuration not stated) gave a TGI of over 100 µM.

On to `Clc1ccc2c(NCCCCNc3nc(N4CCCCC4)nc4ccccc34)ccnc2c1`, for which the GI50 was 2.56 µM and the TGI turned out to be 9.03 µM.

`O=C1/C(=C/c2ccccc2)CN(C(=O)C(Cl)(Cl)Cl)C/C1=C\c1ccccc1` came in with a TGI of 4.17 µM.

The values above are taken from PubChem BioAssay (NCI).
